{
  "source": "patent US20120302490A1",
  "about": "“Bleach Catalyst Compounds, Method For The Production Thereof And Use Thereof” (CLARIANT FINANCE (BVI) LIMITED, priority 2009, published 2012)",
  "assay": "Water absorption (hygroscopicity) of the solid upon storage",
  "format": "physicochemical",
  "experimental": "Tri-μ-oxobis[(1,4,7-trimethyl-1,4,7-triazacyclononane)manganese(IV)]dichloride is prepared analogously to comparative example 1 and isolated in pure form as a red-brown powder. 4.7 g (8 mmol) thereof are dissolved in 50 ml of water and admixed with 3.1 g (16 mmol) of toluene-4-sulfonic acid sodium salt (Merck). After-stirring is carried out for 1 hour at room temperature, followed by evaporation to dryness on a rotary evaporator.\nAnalogously to comparative example 1, an aqueous solution of 0.2 mol of tri-μ-oxobis[(1,4,7-trimethyl-1,4,7-triazacyclononane)manganese(IV)]dichloride in water is prepared and freed from manganese oxides/hydroxides. The salts contained as a result of the reaction (sodium chloride) remain in the solution. At 25° C., 0.4 mol (77.6 g) of solid toluene-4-sulfonic acid sodium salt (Merck) is added and the mixture is after-stirred for 30 minutes. The clear dark red solution is then evaporated to dryness. Drying in a vacuum drying cabinet gives a crystalline red-violet solid in 92.7% yield, a mixture of tri-μ-oxobis[(1,4,7-trimethyl-1,4,7-triaza-cyclononane)manganese(IV)]dichloride, sodium toluenesulfonate and sodium chloride.\nThe procedure is in accordance with example 2 but adding sodium cumenesulfonate instead of the sodium toluene-4-sulfonate (equimolar exchange of sodium toluene-4-sulfonate for sodium cumenesulfonate). Evaporation at 50° C. gives a red-brown solid which, after 5 days, absorbs 7.1% by weight of water and in so doing becomes lumpy.\n4.4 g (7.5 mmol) of isolated tri-μ-oxobis[(1,4,7-trimethyl-1,4,7-triazacyclo-nonane)manganese(IV)]dichloride according to comparative example 1 are dissolved in 50 ml of water, and 4.3 g (15 mmol) of sodium dodecylsulfate are added. The mixture is after-stirred for 1 hour at room temperature and then evaporated to dryness on a rotary evaporator. This gives 8.7 g of crystalline red solid which, after storage for 5 days at room temperature, absorbs 8.7% by weight of water and in so doing becomes lumpy.",
  "data": [
    {"smiles": "CN1CCN(C)CCN(C)CC1.CN1CCN(C)CCN(C)CC1.[Cl-].[Cl-].[O]1[Mn+]2[O][Mn+]1[O]2", "note": "[compound 1, tri-μ-oxobis[(1,4,7-trimethyl-1,4,7-triazacyclononane)-manganese(IV)]dichloride]", "values": [
      {"measurement": "hygroscopicity of isolated powder", "setting": "as isolated, red-brown powder", "value": "strongly hygroscopic"},
      {"measurement": "physical state after storage", "setting": "open dish, room temperature, 24 hours", "value": "becomes liquid"},
      {"measurement": "water absorbed upon storage", "setting": "open dish, room temperature, over the course of 24 hours", "value": "> 17", "unit": "% by weight"}
    ]}
  ]
}
